ChEMBL document CHEMBL5634182, “Antifungal Pseuboyenes A-J, Bergamotene-Derived Sesquiterpenoids from a Cold-Seep-Derived Pseudallescheria boydii” (J Nat Prod, 2024)

Key:
Escherichia coli = assay: Antibacterial activity against Escherichia coli EMBLC-1 assessed as reduction in microbial growth by broth microdilution method; assay type: functional
Edwardsiella tarda = assay: Antibacterial activity against Edwardsiella tarda QDIO-2 assessed as reduction in microbial growth by broth microdilution method; assay type: functional
Micrococcus luteus = assay: Antibacterial activity against Micrococcus luteus QDIO-3 assessed as reduction in microbial growth by broth microdilution method; assay type: functional
Pseudomonas aeruginosa = assay: Antibacterial activity against Pseudomonas aeruginosa QDIO-4 assessed as reduction in microbial growth by broth microdilution method; assay type: functional
Vibrio anguillarum = assay: Antibacterial activity against Vibrio anguillarum QDIO-6 assessed as reduction in microbial growth by broth microdilution method; assay type: functional
Vibrio harveyi = assay: Antibacterial activity against Vibrio harveyi QDIO-7 assessed as reduction in microbial growth by broth microdilution method; assay type: functional
Vibrio vulnificus = assay: Antibacterial activity against Vibrio vulnificus QDIO-10 assessed as reduction in microbial growth by broth microdilution method; assay type: functional
MKN-45 = assay: Cytotoxicity against human MKN-45 cells assessed as reduction in cell viability at 20 uM; assay type: functional, cell-based
A549 = assay: Cytotoxicity against human A549 cells assessed as reduction in cell viability at 20 uM; assay type: functional, cell-based
HCT-116 = assay: Cytotoxicity against human HCT-116 cells assessed as reduction in cell viability at 20 uM; assay type: functional, cell-based
HeLa = assay: Cytotoxicity against human HeLa cells assessed as reduction in cell viability at 20 uM; assay type: functional, cell-based
K562 = assay: Cytotoxicity against human K562 cells assessed as reduction in cell viability at 20 uM; assay type: functional, cell-based
786-0 = assay: Cytotoxicity against human 786-0 cells assessed as reduction in cell viability at 20 uM; assay type: functional, cell-based
TE-1 = assay: Cytotoxicity against human TE-1 cells assessed as reduction in cell viability at 20 uM; assay type: functional, cell-based
5637 = assay: Cytotoxicity against human 5637 cells assessed as reduction in cell viability at 20 uM; assay type: functional, cell-based
GBC-SD = assay: Cytotoxicity against human GBC-SD cells assessed as reduction in cell viability at 20 uM; assay type: functional, cell-based
L02 = assay: Cytotoxicity against human L02 cells assessed as reduction in cell viability at 20 uM; assay type: functional, cell-based
MCF7 = assay: Cytotoxicity against human MCF7 cells assessed as reduction in cell viability at 20 uM; assay type: functional, cell-based
HepG2 = assay: Cytotoxicity against human HepG2 cells assessed as reduction in cell viability at 20 uM; assay type: functional, cell-based
SF-126 = assay: Cytotoxicity against human SF-126 cells assessed as reduction in cell viability at 20 uM; assay type: functional, cell-based
DU-145 = assay: Cytotoxicity against human DU-145 cells assessed as reduction in cell viability at 20 uM; assay type: functional, cell-based
CAL-62 = assay: Cytotoxicity against human CAL-62 cells assessed as reduction in cell viability at 20 uM; assay type: functional, cell-based
PaTu 8988t = assay: Cytotoxicity against human PaTu 8988t cells assessed as reduction in cell viability at 20 uM; assay type: functional, cell-based
HOS = assay: Cytotoxicity against human HOS cells assessed as reduction in cell viability at 20 uM; assay type: functional, cell-based
A-375 = assay: Cytotoxicity against human A-375 cells assessed as reduction in cell viability at 20 uM; assay type: functional, cell-based
A673 = assay: Cytotoxicity against human A673 cells assessed as reduction in cell viability at 20 uM; assay type: functional, cell-based
HEK-293T = assay: Cytotoxicity against human HEK293T cells assessed as reduction in cell viability at 20 uM; assay type: toxicity, cell-based
Alternaria brassicae = assay: Antifungal activity against Alternaria brassicae QDAU-16 assessed as reduction in microbial growth by broth microdilution method; assay type: functional
[1] = system: Ceratobasidium cornigerum; assay: Antifungal activity against Ceratobasidium cornigerum QDAU-6 assessed as reduction in microbial growth by broth microdilution method; assay type: functional
Coniella diplodiella = assay: Antifungal activity against Coniothyrium diplodiella QDAU-7 assessed as reduction in microbial growth by broth microdilution method; assay type: functional
[2] = system: Colletotrichum gloeosporioides; assay: Antifungal activity against Colletotrichum gloeosporioides QDAU-2 assessed as reduction in microbial growth by broth microdilution method; assay type: functional
[3] = system: Colletotrichum gloeosporioides; assay: Antifungal activity against Colletotrichum gloeosporioides QDAU-17 assessed as reduction in microbial growth by broth microdilution method; assay type: functional
Curvularia spicifera = assay: Antifungal activity against Curvularia spicifera QDAU-18 assessed as reduction in microbial growth by broth microdilution method; assay type: functional
Fusarium graminearum = assay: Antifungal activity against Fusarium graminearum QDAU-4 assessed as reduction in microbial growth by broth microdilution method; assay type: functional
Fusarium oxysporum = assay: Antifungal activity against Fusarium oxysporum QDAU-8 assessed as reduction in microbial growth by broth microdilution method; assay type: functional
Fusarium proliferatum [4] = assay: Antifungal activity against Fusarium proliferatum QDAU-19 assessed as reduction in microbial growth by broth microdilution method; assay type: functional
Penicillium digitatum = assay: Antifungal activity against Penicillium digitatum QDAU-14 assessed as reduction in microbial growth by broth microdilution method; assay type: functional
[5] = system: Botryosphaeria berengeriana; assay: Antifungal activity against Physalospora piricola QDAU-15 assessed as reduction in microbial growth by broth microdilution method; assay type: functional
Fusarium proliferatum [6] = assay: Antifungal activity against Fusarium proliferatum assessed as reduction in microbial growth measured after 72 hrs; assay type: functional, organism-based

Row | Structure (SMILES) | Activity (MKN-45) | Activity (A549) | Activity (HCT-116) | Activity (HeLa) | Activity (K562) | Activity (786-0) | Activity (TE-1) | Activity 5637 | Activity (GBC-SD) | Activity (L02) | Activity (MCF7) | Activity (HepG2) | Activity (SF-126) | Activity (DU-145) | Activity (CAL-62) | Activity (PaTu 8988t) | Activity (HOS) | Activity (A-375) | Activity (A673) | Activity (HEK-293T) | further results
1 | C=C1CC[C@H](O)C[C@@H]1[C@H](C)C(=O)[C@H](O)C=C(C)C | Not toxic | Not toxic | Not toxic | Not toxic | Not toxic | Not toxic | Not toxic | Not toxic | Not toxic | Not toxic | Not toxic | Not toxic | Not toxic | Not toxic | Not toxic | Not toxic | Not toxic | Not toxic | Not toxic | Non-Toxic | MIC (Escherichia coli): 8 µg/mL; MIC (Edwardsiella tarda): > 64 µg/mL; MIC (Micrococcus luteus): > 64 µg/mL; MIC (Pseudomonas aeruginosa): > 64 µg/mL; MIC (Vibrio anguillarum): 32 µg/mL; MIC (Vibrio harveyi): > 64 µg/mL; MIC (Vibrio vulnificus): > 64 µg/mL
2 | C=C1CC[C@@]2(O)C[C@@H]1[C@]2(C)[C@@H](/C=C/C(C)(C)O)OC(C)=O | Not toxic | Not toxic | Not toxic | Not toxic | Not toxic | Not toxic | Not toxic | Not toxic | Not toxic | Not toxic | Not toxic | Not toxic | Not toxic | Not toxic | Not toxic | Not toxic | Not toxic | Not toxic | Not toxic | Non-Toxic | MIC (Alternaria brassicae): 0.5 µg/mL; MIC [1]: 4 µg/mL; MIC (Coniella diplodiella): 0.5 µg/mL; MIC [2]: 4 µg/mL; MIC [3]: 8 µg/mL; MIC (Curvularia spicifera): 2 µg/mL; MIC (Fusarium graminearum): 4 µg/mL; MIC (Fusarium oxysporum): 2 µg/mL; MIC (Fusarium proliferatum [4]): 0.5 µg/mL; MIC (Penicillium digitatum): 4 µg/mL; MIC [5]: 8 µg/mL; EC50 (Fusarium proliferatum [6]): 1 µg/mL; Activity (Fusarium proliferatum [6]; dose <= 100.0 µg/ml): Dose-Dependent Effect
